Data as given in ChEMBL document CHEMBL3091441, “Ligand modifications to reduce the relative resistance of multi-drug resistant HIV-1 protease” (Bioorg Med Chem, 2013).
*1 amine or outer side, *2 acyl side, *3 side chain or, on linkers, in order; H or OH if unused. Where a SMILES comes first, the peptide text is derived from it. Side-chain parts run from the residue outwards. [ ]: non-standard residue; d: D form. N(2S-amino-4-Me-pentyl)Phe = CC(C)C[C@@H](CN([C@@H](Cc1ccccc1)C(=O)[*:2])[*:1])N[*:3]; N(2S-NH-3-Ph-propyl)Phe = O=C([C@H](Cc1ccccc1)N(C[C@H](Cc1ccccc1)N[*:3])[*:1])[*:2]; Nle = CCCC[C@H](N)C(=O)O

What was measured:
[1] = Inhibition of HIV-1 multidrug-resistant protease 769 preincubated for 20 mins by FRET analysis; set-up: species or system Human immunodeficiency virus 1
Protease = Protease (Human immunodeficiency virus 1, UniProt Q9YQ12); assay: Inhibition of HIV-1 NL4-3 wild type protease expressed in Escherichia coli preincubated for 20 mins by FRET analysis
Protease, sequence (Q9YQ12 whole entry): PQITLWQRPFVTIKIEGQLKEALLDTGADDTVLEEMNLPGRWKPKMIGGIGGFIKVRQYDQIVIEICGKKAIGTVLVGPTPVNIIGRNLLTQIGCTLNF

[2] = system: Human immunodeficiency virus 1; assay: Ratio of IC50 for HIV-1 multidrug-resistant protease 769 to IC50 for HIV-1 NL4-3 wild type protease

SMILES: Cc1cccc(C)c1OCC(=O)N[C@@H](Cc1ccccc1)[C@@H](O)C[C@H](CC(C)C)NC(=O)[C@H](C(C)C)N1CCCNC1=O
- IC50 [1]: 6.8 nM
- IC50 (Protease): 2.1 nM
- Ratio IC50 [2]: 3.2

SMILES: CCCC[C@H](NC(=O)CNC(=O)[C@H](CCC(=O)O)NC(=O)[C@H](Cc1ccccc1)NC[C@H](Cc1ccccc1)NC(=O)[C@@H](NC(=O)[C@@H](N)CCCNC(=N)N)C(C)C)C(=O)O (H-[N(2S-NH-3-Ph-propyl)Phe]([Val-Arg])EG[Nle]-OH)
- IC50 [1]: 142 nM
- IC50 (Protease): 30.7 nM
- Ratio IC50 [2]: 4.6

SMILES: CCCC[C@H](NC(=O)CNC(=O)[C@H](CCC(=O)O)NC(=O)[C@H](Cc1ccccc1)NC[C@H](CC(C)C)NC(=O)[C@@H](NC(=O)[C@@H](N)CCCNC(=N)N)C(C)C)C(=O)O (H-[N(2S-amino-4-Me-pentyl)Phe]([Val-Arg])EG[Nle]-OH)
- IC50 [1]: 4.4 nM
- IC50 (Protease): 2.6 nM
- Ratio IC50 [2]: 1.7

SMILES: Cc1cccc(C)c1OCC(=O)N[C@@H](Cc1ccccc1)[C@@H](O)C[C@H](Cc1ccccc1)NC(=O)[C@H](C(C)C)N1CCCNC1=O [LOPINAVIR]
- IC50 [1]: 16 nM
